Results published in ChEMBL document CHEMBL1909046, “DrugMatrix in vitro pharmacology data”.

What was measured:
[1] = target: T1, Alpha-1D adrenergic receptor (Homo sapiens, UniProt P25100); type: cell membranes, HEK293, Membrane; conditions: for Ki: read-out: Ki; on all read-outs here: in other assays of this panel Not Active means under 50% inhibition at 10 µM
T1 sequence (P25100 whole entry): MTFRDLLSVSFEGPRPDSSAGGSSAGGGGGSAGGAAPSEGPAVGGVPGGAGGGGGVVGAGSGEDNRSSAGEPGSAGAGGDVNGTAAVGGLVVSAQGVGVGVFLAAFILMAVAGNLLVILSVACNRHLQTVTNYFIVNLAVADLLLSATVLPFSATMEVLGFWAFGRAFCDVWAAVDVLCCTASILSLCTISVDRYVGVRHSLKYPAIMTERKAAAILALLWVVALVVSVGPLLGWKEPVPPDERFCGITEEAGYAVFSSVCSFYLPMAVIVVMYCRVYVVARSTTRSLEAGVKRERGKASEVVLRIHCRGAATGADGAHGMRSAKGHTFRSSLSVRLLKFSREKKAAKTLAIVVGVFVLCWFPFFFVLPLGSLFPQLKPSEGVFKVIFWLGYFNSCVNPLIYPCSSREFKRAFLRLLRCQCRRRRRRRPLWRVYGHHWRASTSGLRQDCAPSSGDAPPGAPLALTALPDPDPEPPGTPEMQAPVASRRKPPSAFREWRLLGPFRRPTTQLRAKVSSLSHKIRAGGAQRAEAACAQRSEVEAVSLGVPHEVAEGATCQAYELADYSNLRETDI

B2 bradykinin receptor = target: T2, B2 bradykinin receptor (Homo sapiens, UniProt P30411); type: cell membranes, Membrane; conditions: chem-1; further: in other assays of this panel Not Active means under 50% inhibition at 10 µM
T2 sequence (P30411 whole entry): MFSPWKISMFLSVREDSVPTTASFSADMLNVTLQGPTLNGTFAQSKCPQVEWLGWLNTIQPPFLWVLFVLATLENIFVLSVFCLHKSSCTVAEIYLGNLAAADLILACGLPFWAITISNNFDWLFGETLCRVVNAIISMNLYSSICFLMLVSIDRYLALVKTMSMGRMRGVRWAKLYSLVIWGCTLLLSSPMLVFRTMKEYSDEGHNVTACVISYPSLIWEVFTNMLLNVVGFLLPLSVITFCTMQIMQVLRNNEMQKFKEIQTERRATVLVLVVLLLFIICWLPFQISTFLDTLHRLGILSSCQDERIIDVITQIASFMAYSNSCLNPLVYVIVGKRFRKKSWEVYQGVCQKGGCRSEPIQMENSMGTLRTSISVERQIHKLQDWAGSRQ

[2] = DRUGMATRIX: Phorbol Ester radioligand binding (ligand: [3H] PDBu); type: cell membranes, Mus musculus, ICR, Brain, Membrane; conditions: Not Active = under 50% inhibition at 10 µM
[3] = target: Sodium-dependent dopamine transporter (Homo sapiens, UniProt Q01959); test: DRUGMATRIX: Dopamine Transporter radioligand binding (ligand: [125I] RTI-55); type: cell membranes, CHO-K1, Membrane; conditions: Not Active = under 50% inhibition at 10 µM
[4] = target: T3, Amine oxidase [flavin-containing] A (Homo sapiens, UniProt P21397); test: DRUGMATRIX: Monoamine Oxidase MAO-A enzyme inhibition (substrate: Kynuramine); set-up: species or system BTI-TN-5B1-4; conditions: Not Active = under 50% inhibition at 10 µM
T3 sequence (P21397 whole entry): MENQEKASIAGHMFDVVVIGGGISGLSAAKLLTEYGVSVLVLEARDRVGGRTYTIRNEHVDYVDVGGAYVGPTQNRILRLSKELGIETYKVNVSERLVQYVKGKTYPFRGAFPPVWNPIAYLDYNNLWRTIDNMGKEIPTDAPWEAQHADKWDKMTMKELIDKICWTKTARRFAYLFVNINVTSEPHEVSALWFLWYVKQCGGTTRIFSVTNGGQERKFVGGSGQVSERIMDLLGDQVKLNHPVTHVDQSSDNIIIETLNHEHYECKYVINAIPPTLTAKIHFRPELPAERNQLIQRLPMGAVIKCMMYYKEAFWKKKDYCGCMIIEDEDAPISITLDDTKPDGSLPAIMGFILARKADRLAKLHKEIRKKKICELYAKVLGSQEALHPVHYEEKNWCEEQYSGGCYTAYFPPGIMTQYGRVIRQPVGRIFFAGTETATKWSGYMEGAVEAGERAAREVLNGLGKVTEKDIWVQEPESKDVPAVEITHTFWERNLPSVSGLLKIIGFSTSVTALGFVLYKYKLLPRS

[5] = target: T4, Neuropeptide Y receptor type 1 (Homo sapiens, UniProt P25929); type: cell membranes, Membrane; conditions: sk-n-mc; further: in other assays of this panel Not Active means under 50% inhibition at 10 µM
T4 sequence (P25929 whole entry): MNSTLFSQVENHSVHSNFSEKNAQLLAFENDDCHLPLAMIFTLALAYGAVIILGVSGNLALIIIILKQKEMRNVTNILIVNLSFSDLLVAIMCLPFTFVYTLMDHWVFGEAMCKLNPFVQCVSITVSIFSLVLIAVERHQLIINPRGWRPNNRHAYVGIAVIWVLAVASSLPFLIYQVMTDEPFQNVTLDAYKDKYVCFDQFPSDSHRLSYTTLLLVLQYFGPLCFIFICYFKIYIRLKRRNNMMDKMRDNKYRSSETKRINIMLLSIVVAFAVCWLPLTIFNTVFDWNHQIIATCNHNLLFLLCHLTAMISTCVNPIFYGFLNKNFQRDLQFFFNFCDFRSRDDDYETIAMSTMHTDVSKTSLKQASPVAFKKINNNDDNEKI

Sequence of Sodium-dependent dopamine transporter (Q01959 whole entry): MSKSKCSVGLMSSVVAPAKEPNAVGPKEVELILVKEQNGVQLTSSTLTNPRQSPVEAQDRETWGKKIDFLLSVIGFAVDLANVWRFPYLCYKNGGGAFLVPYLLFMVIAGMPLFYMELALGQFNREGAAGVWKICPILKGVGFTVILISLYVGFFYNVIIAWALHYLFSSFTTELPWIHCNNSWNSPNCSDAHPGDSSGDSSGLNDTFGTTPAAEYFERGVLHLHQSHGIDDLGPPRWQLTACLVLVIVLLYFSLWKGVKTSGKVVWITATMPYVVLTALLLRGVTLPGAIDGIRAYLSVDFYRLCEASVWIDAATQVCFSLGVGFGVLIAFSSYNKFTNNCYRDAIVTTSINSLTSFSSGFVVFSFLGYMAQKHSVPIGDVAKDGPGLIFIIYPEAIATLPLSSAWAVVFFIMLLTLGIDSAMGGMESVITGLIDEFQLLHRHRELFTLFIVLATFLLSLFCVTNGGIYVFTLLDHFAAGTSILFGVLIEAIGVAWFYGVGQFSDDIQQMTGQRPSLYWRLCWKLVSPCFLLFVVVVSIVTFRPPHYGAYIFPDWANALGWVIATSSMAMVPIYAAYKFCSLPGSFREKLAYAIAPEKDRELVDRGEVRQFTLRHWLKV

Compound | IC50 ([1]; hek293) | IC50 (B2 bradykinin receptor) | IC50 [2] | Ki [2] | IC50 ([3]; cho-k1) | IC50 ([4]; bti-tn-5b1-4) | IC50 [5] | IC50 ([1]; read-out: IC50) | Ki [1] | IC50 ([3]; read-out: IC50) | Ki ([3]; read-out: Ki) | IC50 ([4]; read-out: IC50)
CCC1=C(C)CN(C(=O)NCCc2ccc(S(=O)(=O)NC(=O)N[C@H]3CC[C@H](C)CC3)cc2)C1=O [GLIMEPIRIDE] | Not Active | Not Active | Not Active | Not Active | Not Active | Not Active | Not Active | – | – | – | – | –
Nc1cc(-c2ccncc2)c[nH]c1=O [INAMRINONE] | Not Active | Not Active | Not Active | Not Active | Not Active | Not Active | Not Active | – | – | – | – | –
CCCCC1=NC2(CCCC2)C(=O)N1Cc1ccc(-c2ccccc2-c2nnn[nH]2)cc1 [IRBESARTAN] | Not Active | Not Active | Not Active | Not Active | Not Active | Not Active | Not Active | – | – | – | – | –
CN1CCC(=C2c3ccccc3CC(=O)c3sccc32)CC1 [KETOTIFEN] | – | Not Active | Not Active | Not Active | Not Active | Not Active | Not Active | 3.73 µM | 1.83 µM | – | – | –
N[C@@H](Cn1ccc(=O)c(O)c1)C(=O)O [L-MIMOSINE] | Not Active | Not Active | Not Active | Not Active | Not Active | Not Active | Not Active | – | – | – | – | –
C[N+](C)(C)C[C@H](O)CC(=O)[O-] [LEVOCARNITINE] | Not Active | Not Active | Not Active | Not Active | Not Active | Not Active | Not Active | – | – | – | – | –
C[C@H]1COc2c(N3CCN(C)CC3)c(F)cc3c(=O)c(C(=O)O)cn1c23.C[C@H]1COc2c(N3CCN(C)CC3)c(F)cc3c(=O)c(C(=O)O)cn1c23.O [LEVOFLOXACIN] | Not Active | Not Active | Not Active | Not Active | Not Active | Not Active | Not Active | – | – | – | – | –
CCn1cc(C(=O)O)c(=O)c2cc(F)c(N3CCNC(C)C3)c(F)c21 (stereo not drawn) [LOMEFLOXACIN] | Not Active | Not Active | Not Active | Not Active | Not Active | Not Active | Not Active | – | – | – | – | –
CN1CCCC(CN2c3ccccc3Sc3ccccc32)C1 (stereo not drawn) [MEPAZINE] | – | Not Active | Not Active | Not Active | Not Active | Not Active | Not Active | 0.137 µM | 0.067 µM | – | – | –
Cc1cccc(C)c1NC(=O)C1CCCCN1C (stereo not drawn) [MEPIVACAINE] | Not Active | Not Active | Not Active | Not Active | Not Active | Not Active | Not Active | – | – | – | – | –
CN(C)C(=N)NC(=N)N [METFORMIN] | Not Active | Not Active | Not Active | Not Active | Not Active | Not Active | Not Active | – | – | – | – | –
CC(C)(C)NCC(O)COc1cccc2c1CC(O)C(O)C2 (stereo not drawn) [NADOLOL] | Not Active | Not Active | Not Active | Not Active | Not Active | Not Active | Not Active | – | – | – | – | –
C[C@]12CC[C@H]3[C@@H](CCC4=CC(=O)CC[C@@H]43)[C@@H]1CC[C@@H]2O [NANDROLONE] | Not Active | Not Active | Not Active | Not Active | Not Active | Not Active | Not Active | – | – | – | – | –
C[C@@H]1C/C=C/C=C/C=C/C=C/[C@H](O[C@@H]2O[C@H](C)[C@@H](O)[C@H](N)[C@@H]2O)C[C@@H]2O[C@](O)(C[C@@H](O)C[C@H]3O[C@@H]3/C=C/C(=O)O1)C[C@H](O)[C@H]2C(=O)O [NATAMYCIN] | Not Active | Not Active | Not Active | Not Active | Not Active | Not Active | Not Active | – | – | – | – | –
CN(C)C(=O)Oc1cccc([N+](C)(C)C)c1.[Br-] [NEOSTIGMINE BROMIDE] | Not Active | Not Active | Not Active | Not Active | Not Active | Not Active | Not Active | – | – | – | – | –
NC(=O)c1cccnc1 [NIACINAMIDE] | Not Active | Not Active | Not Active | Not Active | Not Active | Not Active | Not Active | – | – | – | – | –
CS(=O)(=O)Nc1ccc([N+](=O)[O-])cc1Oc1ccccc1 [NIMESULIDE] | Not Active | Not Active | Not Active | Not Active | – | Not Active | Not Active | – | – | 14.9 µM | 11.8 µM | –
CN1C(=O)CN=C(c2ccccc2)c2cc([N+](=O)[O-])ccc21 [NIMETAZEPAM] | Not Active | Not Active | Not Active | Not Active | Not Active | Not Active | Not Active | – | – | – | – | –
COc1ccc2c(c1OC)C(=O)O[C@@H]2[C@H]1c2c(cc3c(c2OC)OCO3)CCN1C [NOSCAPINE] | Not Active | Not Active | Not Active | Not Active | Not Active | Not Active | Not Active | – | – | – | – | –
C[C@@H]1O[C@@H](O[C@H]2C[C@@H](O)[C@]3(CO)[C@H]4[C@H](O)C[C@]5(C)[C@@H](C6=CC(=O)OC6)CC[C@]5(O)[C@@H]4CC[C@]3(O)C2)[C@H](O)[C@H](O)[C@H]1O [OUABAIN] | Not Active | Not Active | Not Active | Not Active | Not Active | Not Active | Not Active | – | – | – | – | –
NC(=O)N1c2ccccc2CC(=O)c2ccccc21 [OXCARBAZEPINE] | Not Active | Not Active | Not Active | Not Active | Not Active | Not Active | Not Active | – | – | – | – | –
COc1ccnc(C[S+]([O-])c2nc3ccc(OC(F)F)cc3[nH]2)c1OC (stereo not drawn) [PANTOPRAZOLE] | Not Active | Not Active | Not Active | Not Active | Not Active | Not Active | Not Active | – | – | – | – | –
CCc1ccc(CCOc2ccc(CC3SC(=O)NC3=O)cc2)nc1 (stereo not drawn) [PIOGLITAZONE] | Not Active | Not Active | Not Active | Not Active | Not Active | – | Not Active | – | – | – | – | 35.1 µM
CCCNC(C)C(=O)Nc1ccccc1C (stereo not drawn) [PRILOCAINE] | Not Active | Not Active | Not Active | Not Active | Not Active | Not Active | Not Active | – | – | – | – | –
CCN(CC)CCNC(=O)c1ccc(N)cc1 [PROCAINAMIDE] | Not Active | Not Active | Not Active | Not Active | Not Active | Not Active | Not Active | – | – | – | – | –
